{
  "source": "patent US20050208139A1",
  "about": "(Ascend Therapeutics, Inc., priority 2004, published 2005)",
  "experiment": "Isomerization of 4-hydroxy tamoxifen in hydroalcoholic solutions at 25°, 30° and 40° C., Z/E isomers by HPLC (Example 1)",
  "format": "physicochemical",
  "experimental": "Hydroalcoholic solutions containing 4-hydroxy tamoxifen were prepared, based on the following gel formula: […]\nIn the hydroalcoholic solutions, phosphate buffer was substituted for Klucel. The composition of the buffer was as follows:\nAt each of the stated concentrations, separate solutions containing Z-4-hydroxy tamoxifen or a mixture of Z- and E-4-hydroxy tamoxifen were prepared.\nEach solution was subdivided into three parts in 30 ml brown glass bottles, then placed in ovens regulated at 25°, 30°, and 40° C.\nThe relative amounts of Z- and E-4-hydroxy tamoxifen isomers were determined at the initiation of the study and at 2-week, 1-month, 2-month, 3-month, 4-month and 5-month time points.\nOperating parameters for the HPLC were as follows:\nThe order of elution was as follows: • 4-OHT E: retention time about 13.3 min • 4-OHT Z: retention time about 15.0 min.\nPercentages of each isomer were calculated using the following formulas: [formula] [formula] D. Data fitting:\nThe reversible isomerization reaction and the equilibrium reaches are lied by the following relationship: [formula] where • A0=initial concentration of the reagent • Aeq=concentration of the same reagent at equilibrium • A=the concentration of A at time t • kf=forward rate constant • kr=reverse rate constant • t=time measured in months\nA plot of log [formula] as a function of time gives a straight line fit with a slope of [formula] and a y-intercept of 0. E. Results",
  "key": {"[1]": {"settings": "25° C., nominal 4-hydroxy tamoxifen concentration (Z + E) in solution 0.02%"}, "[2]": {"settings": "25° C., nominal concentration (Z + E) 0.04%"}, "[3]": {"settings": "25° C., nominal concentration (Z + E) 0.06%"}, "[4]": {"settings": "25° C., nominal concentration (Z + E) 0.08%"}, "[5]": {"settings": "25° C., nominal concentration (Z + E) 0.10%"}, "[6]": {"settings": "30° C., nominal concentration (Z + E) 0.02%"}, "[7]": {"settings": "30° C., nominal concentration (Z + E) 0.04%"}, "[8]": {"settings": "30° C., nominal concentration (Z + E) 0.06%"}, "[9]": {"settings": "30° C., nominal concentration (Z + E) 0.08%"}, "[10]": {"settings": "30° C., nominal concentration (Z + E) 0.10%"}, "[11]": {"settings": "40° C., nominal concentration (Z + E) 0.02%"}, "[12]": {"settings": "40° C., nominal concentration (Z + E) 0.04%"}, "[13]": {"settings": "40° C., nominal concentration (Z + E) 0.06%"}, "[14]": {"settings": "40° C., nominal concentration (Z + E) 0.08%"}, "[15]": {"settings": "40° C., nominal concentration (Z + E) 0.10%"}},
  "data": [
    {"smiles": "CC/C(=C(\\c1ccc(O)cc1)c1ccc(OCCN(C)C)cc1)c1ccccc1", "note": "[Batch PANCHIM 7421]", "values": [
      {"measurement": "Rate constant", "setting": "[1]", "value": 0.0225, "unit": "month^−1"},
      {"measurement": "Rate constant", "setting": "[2]", "value": 0.0637, "unit": "month^−1"},
      {"measurement": "Rate constant", "setting": "[3]", "value": 0.0886, "unit": "month^−1"},
      {"measurement": "Rate constant", "setting": "[4]", "value": 0.1352, "unit": "month^−1"},
      {"measurement": "Rate constant", "setting": "[5]", "value": 0.1827, "unit": "month^−1"},
      {"measurement": "Rate constant", "setting": "[6]", "value": 0.0457, "unit": "month^−1"},
      {"measurement": "Rate constant", "setting": "[7]", "value": 0.0864, "unit": "month^−1"},
      {"measurement": "Rate constant", "setting": "[8]", "value": 0.1487, "unit": "month^−1"},
      {"measurement": "Rate constant", "setting": "[9]", "value": 0.1900, "unit": "month^−1"},
      {"measurement": "Rate constant", "setting": "[10]", "value": 0.2568, "unit": "month^−1"},
      {"measurement": "Rate constant", "setting": "[11]", "value": 0.1097, "unit": "month^−1"},
      {"measurement": "Rate constant", "setting": "[12]", "value": 0.2287, "unit": "month^−1"},
      {"measurement": "Rate constant", "setting": "[13]", "value": 0.3877, "unit": "month^−1"},
      {"measurement": "Rate constant", "setting": "[14]", "value": 0.5311, "unit": "month^−1"},
      {"measurement": "Rate constant", "setting": "[15]", "value": 0.6300, "unit": "month^−1"}
    ]},
    {"smiles": "CC/C(=C(\\c1ccc(O)cc1)c1ccc(OCCN(C)C)cc1)c1ccccc1", "note": "[ICI batch Bx 17]", "values": [
      {"measurement": "Rate constant", "setting": "[1]", "value": 0.0347, "unit": "month^−1"},
      {"measurement": "Rate constant", "setting": "[2]", "value": 0.0484, "unit": "month^−1"},
      {"measurement": "Rate constant", "setting": "[3]", "value": 0.0916, "unit": "month^−1"},
      {"measurement": "Rate constant", "setting": "[4]", "value": 0.1476, "unit": "month^−1"},
      {"measurement": "Rate constant", "setting": "[5]", "value": 0.2169, "unit": "month^−1"},
      {"measurement": "Rate constant", "setting": "[6]", "value": 0.0254, "unit": "month^−1"},
      {"measurement": "Rate constant", "setting": "[7]", "value": 0.0801, "unit": "month^−1"},
      {"measurement": "Rate constant", "setting": "[8]", "value": 0.1563, "unit": "month^−1"},
      {"measurement": "Rate constant", "setting": "[9]", "value": 0.2718, "unit": "month^−1"},
      {"measurement": "Rate constant", "setting": "[10]", "value": 0.3103, "unit": "month^−1"},
      {"measurement": "Rate constant", "setting": "[11]", "value": 0.0722, "unit": "month^−1"},
      {"measurement": "Rate constant", "setting": "[12]", "value": 0.2323, "unit": "month^−1"},
      {"measurement": "Rate constant", "setting": "[13]", "value": 0.3924, "unit": "month^−1"},
      {"measurement": "Rate constant", "setting": "[14]", "value": 0.5095, "unit": "month^−1"},
      {"measurement": "Rate constant", "setting": "[15]", "value": 0.6960, "unit": "month^−1"}
    ]}
  ]
}
